# Measurements reported in ChEMBL document CHEMBL1134617 (J Med Chem, 2001).
# Key:
# [1] = biological target: Serotonin receptor 2a and 2c (5HT2A and 5HT2C) (Rattus norvegicus) (UniProt P08909+P14842); test: Ratio of binding affinity towards rat 5-HT2C and 5-HT2A receptors; format: protein assay
# [2] = biological target: T1, 5-hydroxytryptamine receptor 2C (Rattus norvegicus, UniProt P08909); test: Binding affinity against rat 5-hydroxytryptamine 2C receptor using [3H]mesulergine as radioligand
# T1 sequence (P08909 whole entry): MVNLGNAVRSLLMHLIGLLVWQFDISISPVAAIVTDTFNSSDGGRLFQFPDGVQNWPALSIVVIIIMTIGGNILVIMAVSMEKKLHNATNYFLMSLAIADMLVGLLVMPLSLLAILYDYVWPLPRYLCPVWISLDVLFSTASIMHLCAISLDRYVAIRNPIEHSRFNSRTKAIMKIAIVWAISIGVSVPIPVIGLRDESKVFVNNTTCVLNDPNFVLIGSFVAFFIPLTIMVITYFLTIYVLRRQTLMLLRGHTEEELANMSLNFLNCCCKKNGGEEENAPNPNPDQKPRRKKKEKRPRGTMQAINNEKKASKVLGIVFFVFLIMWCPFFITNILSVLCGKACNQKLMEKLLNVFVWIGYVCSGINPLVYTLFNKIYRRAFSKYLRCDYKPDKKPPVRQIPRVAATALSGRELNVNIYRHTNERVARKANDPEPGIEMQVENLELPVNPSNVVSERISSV
# [3] = biological target: T2, 5-hydroxytryptamine receptor 2A (Rattus norvegicus, UniProt P14842); test: Binding affinity against rat 5-hydroxytryptamine 2A receptor using [3H]ketanserin as radioligand
# T2 sequence (P14842 whole entry): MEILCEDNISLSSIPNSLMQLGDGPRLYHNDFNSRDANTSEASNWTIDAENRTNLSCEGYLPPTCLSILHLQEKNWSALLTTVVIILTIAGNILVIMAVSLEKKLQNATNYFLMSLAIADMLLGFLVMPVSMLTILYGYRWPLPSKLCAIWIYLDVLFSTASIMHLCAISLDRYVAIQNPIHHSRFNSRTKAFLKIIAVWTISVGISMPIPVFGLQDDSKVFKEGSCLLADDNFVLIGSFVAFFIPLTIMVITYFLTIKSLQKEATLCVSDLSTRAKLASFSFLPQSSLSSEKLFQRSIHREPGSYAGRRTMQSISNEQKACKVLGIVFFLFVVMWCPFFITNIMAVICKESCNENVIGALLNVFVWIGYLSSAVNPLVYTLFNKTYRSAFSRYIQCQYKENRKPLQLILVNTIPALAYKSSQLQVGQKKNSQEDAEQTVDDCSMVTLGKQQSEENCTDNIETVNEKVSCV
# [4] = biological target: T2, 5-hydroxytryptamine receptor 2A; test: Binding affinity against rat 5-hydroxytryptamine 2A receptor using [3H]DOB as radioligand
# Chain of Serotonin receptor 2a and 2c (5HT2A and 5HT2C) (Rattus norvegicus) (P14842 whole entry, looked up, one chain of several): as the sequence (P14842 whole entry) above
Compound,Ratio [1],Ki [2],Ki [3],Ki [4]
COc1cc(Cc2ccccc2)ccc1CCN,4,93 nM,23 nM,–
COc1cc(CCCc2ccccc2)ccc1CC(C)N (configuration not stated),11,–,–,–
COc1cc(CCCc2ccccc2)ccc1CCN,16,295 nM,18 nM,12 nM
COc1cc(CCc2ccccc2)ccc1CCN,4,170 nM,46 nM,–
COc1ccc(Br)cc1CCN,1,960 nM,1000 nM,208 nM
COc1ccc(I)cc1CCN,2,1640 nM,700 nM,211 nM
COc1ccc(CCc2ccccc2)cc1CCN,2,435 nM,240 nM,–
COc1cc(CCCC2CCCCC2)ccc1CCN,< 1,116 nM,438 nM,250 nM
COc1ccc(OCCc2ccccc2)cc1CCN,3,1790 nM,600 nM,440 nM
COc1cc(CCCCc2ccccc2)ccc1CCN,1,68 nM,59 nM,42 nM
COc1ccc(OCc2ccccc2)cc1CCN,1,410 nM,345 nM,255 nM
COc1ccc(CCCc2ccccc2)cc1CC(C)N (configuration not stated),8,110 nM,13 nM,19 nM
COc1cc(C#CCCCc2ccccc2)ccc1CCN,< 1,70 nM,295 nM,240 nM
COc1ccc(Cc2ccccc2)cc1CCN,1,230 nM,176 nM,–
COc1ccc(OC)c(CCN)c1,2,6400 nM,2820 nM,–
COc1ccc(O)cc1CCN,1,4860 nM,5960 nM,1330 nM
COc1ccc(C#CCCCc2ccccc2)cc1CCN,< 1,205 nM,295 nM,–
COc1cc(-c2ccccc2)ccc1CCN,< 1,1520 nM,6720 nM,4900 nM
COc1cc(OCCc2ccccc2)ccc1CCN,5,810 nM,172 nM,110 nM
COc1ccc(-c2ccccc2)cc1CCN,1,2870 nM,3460 nM,1520 nM
COc1ccc(CCCC2CCCCC2)cc1CCN,< 1,198 nM,380 nM,760 nM
COc1ccc(CCCc2ccccc2)cc1CCN,11,220 nM,20 nM,30 nM
COc1ccc(CCCCc2ccccc2)cc1CCN,1,71 nM,89 nM,67 nM
COc1ccccc1CCN,–,> 10000 nM,> 10000 nM,> 10000 nM
COc1ccc(OCCc2ccc(Br)cc2)cc1CCN,1,115 nM,91 nM,35 nM
COc1cc(CCCCCc2ccccc2)ccc1CCN,< 1,19 nM,72 nM,18 nM
COc1ccc(CCCCCc2ccccc2)cc1CCN,1,150 nM,110 nM,–
